Reference: PMC5707067, “Farnesyl phenolic enantiomers as natural MTH1 inhibitors from Ganoderma sinense” (Oncotarget, 2017)

What was measured:
MTH1 = MTH1 (Homo sapiens, UniProt P36639); experiment: Microscale thermophoresis (MST) binding assay
Method: Microscale thermophoresis method (MST) was employed to assay the binding affinity between the compounds and MTH1. […] The dissociation constant Kd values were automatically calculated by using the NT Analysis software (Nano Temper Technologies, München, Germany).
Recombinant human MTH1 was labeled with the Monolith NT™ Protein Labeling Kit RED (Cat#L001) according to the supplied labeling protocol [32]. Labelled MTH1 was kept constant at 100 nM, while all samples tested were diluted in a 20 mM HEPES (pH 7.5) and 0.05 (v/v) % Tween-20. Compounds were diluted in 12 dilution steps covering the range from 500 μM to 200 nM. After 10 min incubation at room temperature about 37°C, samples were loaded into Monolith™ standard-treated capillaries and the thermophoresis was measured at 25°C after 30 min incubation on a Monolith NT.115 instrument (NanoTemper Technologies, München, Germany). Laser power was set to 20% using 30 seconds on-time. The LED power was set to 100%. The dissociation constant Kd values were fitted by using the NTAnalysis software (NanoTemper Technologies, München, Germany). The Kd value of the binding was obtained in two ways. The first way was calculated by thermophoresis curve when there was no fluorescent change during the initial fluorescence scanning. The second way was calculated from the initial fluorescence scanning curve when compounds bound in the sites which directly interfered the fluorescence.

[1] = CCK8 cytotoxicity assay, Lo2; assay type: cell-based, human; settings: human, Lo2 human hepatic cells (normal tissue cell line), CCK8, 48 h
Excerpt: The growth inhibitory effects of the isolated farnesyl phenolic compounds (1–8) against carcinoma cell lines [human osteosarcoma cells (U2OS), human colorectal carcinoma cells (SW620), human ES-2 ovarian carcinoma cells (ES-2)] and normal tissue cell lines [human hepatic cells (Lo2), African green monkey kidney vero cells (Vero)] were further investigated using CCK8 assay method (Table 3).
Carcinoma cell lines [human osteosarcoma cells (U2OS), human colorectal carcinoma cells (SW620), human ES-2 ovarian carcinoma cells (ES-2)] and normal tissue cell lines [human hepatic cells (Lo2), African green monkey kidney Vero cells (Vero)] The U2OS, SW620, ES-2, Lo2 and Vero were obtained from ATCC (Manassas, VA, USA). The SW620 and Vero cells were cultured in Roswell Park Memorial Institute medium (RPMI), with 10% fetal bovine serum (Hyclone) and 1% penicillin-streptomycin (Sigma). Lo2, U2OS and ES-2 cells were grown in Dulbecco's modified eagle medium (DMEM), with 10% fetal bovine serum (Hyclone) and 1% penicillin-streptomycin (Sigma). All of these cells were cultured at 37°C in a humidified atmosphere with 5% CO2. For CCK8 assay cytotoxicity evaluation of compounds, all cells were separately plated at a density of 1 × 10^4 cells/well in a 96 well plate. Cells were cultivated at 37°C in 5% CO2 atmosphere for 24 h, then medium in the wells was replaced with fresh medium containing compounds which were diluted in 8 dilution steps covering the range from 200 μM to 1.5625 μM. And DMSO was used as negative control. After 48 h incubation, 10 μL of CCK8 solution was added to each well. After 30 min, the optical density (OD) of each well was measured at wavelength of 450 nm on spectrophotometer. Data were corrected for background (no-cell control) and expressed as a percentage of the value for untreated cells. The IC50 values of the isolated compounds were derived from the mean OD values of the triplicate tests versus the drug concentration curves.

## CO[C@]1(c2cc(O)cc(O)c2)C=C(CCCC(CO)CC/C=C(\C)COC(=O)/C=C/c2ccc(O)cc2)C(=O)O1 (stereo partly drawn) [Compound 1, (5R)-3-{9-[(E)-coumaroyl]-4-hydroxymethyl-8-methyl-7-nonene}-5-(3,5-dihydroxyphenyl)-5-methoxy-2(5H)-furanone]
MTH1
  Kd: 4.71 ± 0.686 µM
[1]
  IC50 at 48 h: 150.3 ± 1.09 µM
